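Assay format: 96-well plates, 48-hour exposure. GI50 marks 50% less growth.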 Active and inactive are the calls of the source. Cut-off read from the data, not from the text of the source: active = GI50 up to about 1.1 µM and inactive = higher.
Key:
Test in all cases: NCI tumour cell line growth inhibition, 48 h
CAKI-1 = tested on: CAKI-1
KM12 = tested on: KM12
NCI-H23 = tested on: NCI-H23
OVCAR-5 = tested on: OVCAR-5
UACC-62 = tested on: UACC-62
SF-268 = tested on: SF-268
M14 = tested on: M14
PC-3 = tested on: PC-3
SW-620 = tested on: SW-620
HT-29 = tested on: HT-29
LXFL 529 = tested on: LXFL 529
Hs-578T = tested on: Hs-578T
HOP-62 = tested on: HOP-62
U-251 = tested on: U-251
HCC 2998 = tested on: HCC 2998
NCI-H226 = tested on: NCI-H226
DU-145 = tested on: DU-145
RXF 393 = tested on: RXF 393
HOP-92 = tested on: HOP-92
NCI-H522 = tested on: NCI-H522

SMILES | GI50 (CAKI-1) | GI50 (KM12) | GI50 (NCI-H23) | GI50 (OVCAR-5) | GI50 (UACC-62) | GI50 (SF-268) | GI50 (M14) | GI50 (PC-3) | GI50 (SW-620) | GI50 (HT-29) | GI50 (LXFL 529) | GI50 (Hs-578T) | GI50 (HOP-62) | GI50 (U-251) | GI50 (HCC 2998) | GI50 (NCI-H226) | GI50 (DU-145) | GI50 (RXF 393) | GI50 (HOP-92) | GI50 (NCI-H522)
O=C(c1ccccc1)c1nc2ccc(Cl)cc2cc1C(Br)Br | 0.552 µM (active) | 0.34 µM (active) | 0.304 µM (active) | 0.519 µM (active) | 0.569 µM (active) | 0.384 µM (active) | 1.72 µM (inactive) | 225 nM (active) | 0.185 µM (active) | 0.197 µM (active) | 0.216 µM (active) | 193 nM (active) | 0.641 µM (active) | 0.192 µM (active) | 0.316 µM (active) | 1.68 µM (inactive) | 1.03 µM (active) | 0.216 µM (active) | 0.527 µM (active) | 1.82 µM (inactive)
OCCOc1ccc(-c2cc(-c3ccccn3)nc(-c3ccccn3)c2)cc1 | 0.398 µM (active) | 0.296 µM (active) | 0.447 µM (active) | 0.192 µM (active) | 0.206 µM (active) | 0.107 µM (active) | 0.219 µM (active) | 296 nM (active) | 0.267 µM (active) | 0.112 µM (active) | 0.376 µM (active) | 1370 nM (inactive) | 0.106 µM (active) | 0.148 µM (active) | 0.0578 µM (active) | 0.661 µM (active) | 0.106 µM (active) | 0.337 µM (active) | 0.499 µM (active) | 0.661 µM (active)
O=C1CCC2(c3ccccc3)Nc3ncccc3N12 (centres undefined) | > 100 µM (inactive) | > 100 µM (inactive) | > 100 µM (inactive) | > 100 µM (inactive) | > 100 µM (inactive) | > 100 µM (inactive) | > 100 µM (inactive) |  | > 100 µM (inactive) | > 100 µM (inactive) | > 100 µM (inactive) |  | > 100 µM (inactive) | > 100 µM (inactive) | > 100 µM (inactive) | > 100 µM (inactive) |  | > 100 µM (inactive) | > 100 µM (inactive) | > 100 µM (inactive)
COc1cc(C[S+]2CCCC2)c(SC)cc1C[S+]1CCCC1 | > 100 µM (inactive) | > 100 µM (inactive) | > 100 µM (inactive) | > 100 µM (inactive) | > 100 µM (inactive) | > 100 µM (inactive) | > 100 µM (inactive) |  | > 100 µM (inactive) | > 100 µM (inactive) | > 100 µM (inactive) |  | > 100 µM (inactive) | > 100 µM (inactive) | > 100 µM (inactive) | > 100 µM (inactive) |  | > 100 µM (inactive) | > 100 µM (inactive) | > 100 µM (inactive)
